# According to ChEMBL document CHEMBL4602695, “Discovery and SARs of 5-Chloro-N4-phenyl-N2-(pyridin-2-yl)pyrimidine-2,4-diamine Derivatives as Oral Available and Dual CDK 6 and 9 Inhibitors with Potent Antitumor Activity” (J Med Chem, 2020):
# Calls of active or inactive are those of the source. The rule behind the calls is not given here.
# Tests used:
# CDK2/Cyclin A2 = CDK2/Cyclin A2 (Homo sapiens, UniProt P24941); design: species or system Sf9
# MCF7 = assay: Antiproliferative activity against human MCF7 cells assessed as inhibition of cell proliferation measured after 48 hrs by CCK8 assay; format: functional, cell-based; details: for GI50: MCF7, 48 h
# Jurkat = assay: Antiproliferative activity against human Jurkat cells assessed as inhibition of cell proliferation measured after 48 hrs by CCK8 assay; format: functional, cell-based
# [1] = Cytotoxicity against human L02 cells assessed as inhibition of cell proliferation measured after 48 hrs by CCK8 assay; format: cell-based
# CDK6/cyclin D3 = CDK6/cyclin D3 (Homo sapiens, UniProt Q00534); design: species or system Sf9
# Chain of CDK6/cyclin D3 (P30281 whole entry): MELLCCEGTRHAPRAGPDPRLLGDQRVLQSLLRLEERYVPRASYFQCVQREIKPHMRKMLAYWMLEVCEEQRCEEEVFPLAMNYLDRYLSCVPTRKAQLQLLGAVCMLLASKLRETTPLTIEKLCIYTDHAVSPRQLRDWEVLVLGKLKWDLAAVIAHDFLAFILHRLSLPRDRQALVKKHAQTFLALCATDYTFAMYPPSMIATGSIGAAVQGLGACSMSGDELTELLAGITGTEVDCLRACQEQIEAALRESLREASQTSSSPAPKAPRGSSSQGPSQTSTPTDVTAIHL
# Chain of CDK6/cyclin D3 (Q00534 whole entry): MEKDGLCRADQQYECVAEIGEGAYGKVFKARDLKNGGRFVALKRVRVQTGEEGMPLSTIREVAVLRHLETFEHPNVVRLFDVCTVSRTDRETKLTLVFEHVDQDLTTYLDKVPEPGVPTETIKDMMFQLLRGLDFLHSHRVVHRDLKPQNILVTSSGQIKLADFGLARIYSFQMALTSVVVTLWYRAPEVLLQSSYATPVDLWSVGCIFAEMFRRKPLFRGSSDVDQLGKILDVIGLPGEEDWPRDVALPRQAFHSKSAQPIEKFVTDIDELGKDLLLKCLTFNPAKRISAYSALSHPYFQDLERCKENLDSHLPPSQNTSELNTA
# CDK9/Cyclin K = CDK9/Cyclin K (Homo sapiens, UniProt P50750); assay: biochemical
# Chain of CDK9/Cyclin K (P50750 whole entry): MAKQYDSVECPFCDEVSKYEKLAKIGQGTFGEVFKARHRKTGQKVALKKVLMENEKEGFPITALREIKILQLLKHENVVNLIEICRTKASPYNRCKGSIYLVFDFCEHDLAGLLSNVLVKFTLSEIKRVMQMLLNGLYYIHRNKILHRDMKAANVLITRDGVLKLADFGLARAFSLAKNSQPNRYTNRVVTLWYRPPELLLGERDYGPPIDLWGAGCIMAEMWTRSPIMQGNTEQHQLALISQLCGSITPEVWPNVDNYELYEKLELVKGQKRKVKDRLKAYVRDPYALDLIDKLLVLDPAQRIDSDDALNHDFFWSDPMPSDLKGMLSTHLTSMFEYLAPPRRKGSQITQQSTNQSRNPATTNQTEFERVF
# Chain of CDK9/Cyclin K (O75909 whole entry, further chain): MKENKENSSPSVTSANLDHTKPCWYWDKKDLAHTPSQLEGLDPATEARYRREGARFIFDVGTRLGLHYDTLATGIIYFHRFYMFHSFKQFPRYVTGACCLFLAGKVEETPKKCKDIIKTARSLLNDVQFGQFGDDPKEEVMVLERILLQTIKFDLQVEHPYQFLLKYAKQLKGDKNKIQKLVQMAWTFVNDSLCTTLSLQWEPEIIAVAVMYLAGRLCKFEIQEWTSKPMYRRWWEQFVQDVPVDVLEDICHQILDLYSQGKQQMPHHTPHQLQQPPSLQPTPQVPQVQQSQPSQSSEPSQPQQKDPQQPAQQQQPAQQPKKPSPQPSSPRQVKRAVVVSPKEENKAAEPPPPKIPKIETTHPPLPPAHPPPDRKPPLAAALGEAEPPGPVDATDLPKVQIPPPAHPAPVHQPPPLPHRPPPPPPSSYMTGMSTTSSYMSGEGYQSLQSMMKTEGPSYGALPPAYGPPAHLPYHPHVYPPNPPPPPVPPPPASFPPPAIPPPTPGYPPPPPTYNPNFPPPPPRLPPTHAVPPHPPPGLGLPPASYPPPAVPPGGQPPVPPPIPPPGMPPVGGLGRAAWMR
# MDA-MB-231 = assay: Antiproliferative activity against human MDA-MB-231 cells assessed as inhibition of cell proliferation measured after 48 hrs by CCK8 assay; format: functional, cell-based; details: for GI50: MDA-MB-231, 48 h
# [2] = target: CDK9/Cyclin K (Homo sapiens) (UniProt P50750+O75909); details: Sf9
# [3] = target: CDK6/cyclin D3 (Homo sapiens) (UniProt P30281+Q00534); details: Sf9
compound,measurement,setting,value
Cc1ccccc1Nc1nc(Nc2ccc(N3CCN(C(=O)OC(C)(C)C)CC3)cc2)ncc1Cl,IC50,CDK2/Cyclin A2,0.192 µM
same,GI50,MCF7,2.25 µM
same,GI50,Jurkat,5.12 µM
same,GI50 at 48 h,[1],1.75 µM
same,IC50,CDK6/cyclin D3,0.116 µM
same,IC50,CDK9/Cyclin K,0.176 µM
same,GI50,MDA-MB-231,3.26 µM
CN1CCN(c2ccc(Nc3ncc(Cl)c(Nc4ccccc4)n3)nc2)CC1,IC50,CDK2/Cyclin A2,> 10 µM
same,GI50,MCF7,51.8 µM
same,GI50,Jurkat,> 100 µM
same,GI50 at 48 h,[1],7.99 µM
same,IC50,CDK6/cyclin D3,0.113 µM
same,IC50,CDK9/Cyclin K,9.85 µM
same,GI50,MDA-MB-231,37.4 µM
Cc1cc(C)c(Nc2nc(Nc3ccc(N4CCN(C)CC4)cn3)ncc2Cl)c(C)c1,IC50,CDK2/Cyclin A2,> 10 µM
same,GI50,MCF7,9.47 µM
same,GI50,Jurkat,7.6 µM
same,GI50 at 48 h,[1],20.5 µM
same,IC50,CDK6/cyclin D3,8.87 µM
same,IC50,CDK9/Cyclin K,> 10 µM
same,GI50,MDA-MB-231,21 µM
COc1cccc(CNc2nc(Nc3ccc(N4CCN(C)CC4)cn3)ncc2Cl)c1,IC50,CDK2/Cyclin A2,> 10 µM
same,GI50,MCF7,19.5 µM
same,GI50,Jurkat,73.4 µM
same,GI50 at 48 h,[1],16.2 µM
same,IC50,CDK6/cyclin D3,1.6 µM
same,IC50,CDK9/Cyclin K,3.29 µM
same,GI50,MDA-MB-231,20.3 µM
Cc1ccccc1Nc1nc(Nc2cc(Cl)ccn2)ncc1Cl,IC50,CDK2/Cyclin A2,> 10 µM
same,GI50,MCF7,> 100 µM
same,GI50,Jurkat,39.6 µM
same,GI50 at 48 h,[1],41.5 µM
same,IC50,CDK6/cyclin D3,> 10 µM
same,IC50,CDK9/Cyclin K,> 10 µM
same,GI50,MDA-MB-231,52.4 µM
Cc1cccc(Nc2nc(Nc3ccc(N4CCN(C)CC4)cn3)ncc2Cl)c1,IC50,CDK2/Cyclin A2,> 10 µM
same,GI50,MCF7,7.16 µM
same,GI50,Jurkat,15.3 µM
same,GI50 at 48 h,[1],6.08 µM
same,IC50,CDK6/cyclin D3,0.08 µM
same,IC50,CDK9/Cyclin K,0.431 µM
same,GI50,MDA-MB-231,5.27 µM
CCN1CCN(c2ccc(Nc3ncc(Cl)c(Nc4ccccc4C)n3)nc2)CC1,IC50,CDK2/Cyclin A2,9.18 µM
same,GI50,MCF7,> 100 µM
same,GI50,Jurkat,> 100 µM
same,GI50 at 48 h,[1],> 100 µM
same,IC50,CDK6/cyclin D3,> 10 µM
same,IC50,CDK9/Cyclin K,> 10 µM
same,GI50,MDA-MB-231,> 100 µM
CN1CCN(c2ccc(Nc3ncc(Cl)c(NCCc4ccccc4F)n3)nc2)CC1,IC50,CDK2/Cyclin A2,> 10 µM
same,GI50,MCF7,8.73 µM
same,GI50,Jurkat,14.3 µM
same,GI50 at 48 h,[1],9.67 µM
same,IC50,CDK6/cyclin D3,3.71 µM
same,IC50,CDK9/Cyclin K,> 10 µM
same,GI50,MDA-MB-231,> 100 µM
CN1CCN(c2ccc(Nc3ncc(Cl)c(Nc4ccc(F)cc4)n3)nc2)CC1,inhibition,[2],inactive
CN1CCN(c2ccc(Nc3ncc(Cl)c(Nc4ccc(F)c(C(F)(F)F)c4)n3)nc2)CC1,inhibition,[2],inactive
COc1ccc(CNc2nc(Nc3ccc(N4CCN(C)CC4)cn3)ncc2Cl)cc1,IC50,CDK2/Cyclin A2,> 10 µM
same,GI50,MCF7,17.3 µM
same,GI50,Jurkat,12.9 µM
same,GI50 at 48 h,[1],12.9 µM
same,IC50,CDK6/cyclin D3,0.64 µM
same,IC50,CDK9/Cyclin K,> 10 µM
same,GI50,MDA-MB-231,14.9 µM
Cc1ccccc1Nc1nc(Nc2cccnc2)ncc1Cl,IC50,CDK2/Cyclin A2,0.03 µM
same,GI50,MCF7,56.5 µM
same,GI50,Jurkat,38.6 µM
same,GI50 at 48 h,[1],22.9 µM
same,IC50,CDK6/cyclin D3,6.65 µM
same,IC50,CDK9/Cyclin K,3.43 µM
same,GI50,MDA-MB-231,41.2 µM
Cc1ccccc1Nc1nc(Nc2ccc(N3CCN(C)CC3)cc2)ncc1Cl,IC50,CDK2/Cyclin A2,1.19 µM
same,GI50,MCF7,20.6 µM
same,GI50,Jurkat,13.7 µM
same,GI50 at 48 h,[1],6.51 µM
same,IC50,CDK6/cyclin D3,0.143 µM
same,IC50,CDK9/Cyclin K,0.434 µM
same,GI50,MDA-MB-231,7.02 µM
Cc1ccc(Nc2ncc(Cl)c(Nc3ccccc3C)n2)cc1,IC50,CDK2/Cyclin A2,> 10 µM
same,GI50,MCF7,> 100 µM
same,GI50,Jurkat,> 100 µM
same,GI50 at 48 h,[1],> 100 µM
same,IC50,CDK6/cyclin D3,> 10 µM
same,IC50,CDK9/Cyclin K,> 10 µM
same,GI50,MDA-MB-231,> 100 µM
CN1CCN(c2ccc(Nc3ncc(Cl)c(Nc4ccccc4F)n3)nc2)CC1,inhibition,MCF7,Active
same,inhibition,Jurkat,Active
same,inhibition,[2],inactive
same,inhibition,[3],inactive
same,inhibition,MDA-MB-231,Active
CN1CCN(c2ccc(Nc3ncc(Cl)c(NCCc4ccccc4)n3)nc2)CC1,IC50,CDK2/Cyclin A2,> 10 µM
same,GI50,MCF7,11.8 µM
same,GI50,Jurkat,> 100 µM
same,GI50 at 48 h,[1],14.9 µM
same,IC50,CDK6/cyclin D3,> 10 µM
same,IC50,CDK9/Cyclin K,> 10 µM
same,GI50,MDA-MB-231,> 100 µM
CN1CCN(c2ccc(Nc3ncc(Cl)c(NCc4ccc(F)cc4)n3)nc2)CC1,IC50,CDK2/Cyclin A2,> 10 µM
same,GI50,MCF7,19.3 µM
same,GI50,Jurkat,> 100 µM
same,GI50 at 48 h,[1],39.7 µM
same,IC50,CDK6/cyclin D3,> 10 µM
same,IC50,CDK9/Cyclin K,> 10 µM
same,GI50,MDA-MB-231,> 100 µM
Cc1ccccc1Nc1nc(Nc2ccc(N3CCCN(C)CC3)cc2)ncc1Cl,IC50,CDK2/Cyclin A2,1.59 µM
same,GI50,MCF7,4.29 µM
same,GI50,Jurkat,11.3 µM
same,GI50 at 48 h,[1],1.24 µM
same,IC50,CDK6/cyclin D3,0.536 µM
same,IC50,CDK9/Cyclin K,0.88 µM
same,GI50,MDA-MB-231,6.39 µM
Cc1ccccc1Nc1nc(Nc2ccc(N3CCCCC3)cc2)ncc1Cl,IC50,CDK2/Cyclin A2,3.69 µM
same,GI50,MCF7,> 100 µM
same,GI50,Jurkat,> 100 µM
same,GI50 at 48 h,[1],5.69 µM
same,IC50,CDK6/cyclin D3,> 10 µM
same,IC50,CDK9/Cyclin K,> 10 µM
same,GI50,MDA-MB-231,19.9 µM
COC[C@@H](C)N[C@H]1CC[C@H](Nc2cc(-c3cccc(NCC4(C#N)CCOCC4)n3)c(Cl)cn2)CC1,IC50,CDK2/Cyclin A2,3.46 µM
same,GI50,MCF7,43.4 µM
same,GI50,Jurkat,< 0.16 µM
same,GI50 at 48 h,[1],28.3 µM
same,IC50,CDK6/cyclin D3,> 10 µM
same,IC50,CDK9/Cyclin K,0.002 µM
same,GI50,MDA-MB-231,< 0.16 µM
CC(C)c1ccc(Nc2nc(Nc3ccc(N4CCN(C)CC4)cn3)ncc2Cl)cc1,IC50,CDK2/Cyclin A2,> 10 µM
same,GI50,MCF7,1.88 µM
same,GI50,Jurkat,7.53 µM
same,GI50 at 48 h,[1],13.7 µM
same,IC50,CDK6/cyclin D3,0.126 µM
same,IC50,CDK9/Cyclin K,9.17 µM
same,GI50,MDA-MB-231,7.02 µM
